From PubChem BioAssay (NCI)
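Following 48 hours of exposure in 96-well plates, responses at five concentrations were used to interpolate endpoints linearly. Abbreviation: GI50, concentration required for 50% inhibition of growth. The concentration for full growth arrest is given as TGI.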

Legend:
Test in all cases: DTP human tumour cell line panel, 48 h
HOP-62 NSCLC = tested on: HOP-62 NSCLC
NCI-H522 lung = tested on: NCI-H522 lung
786-0 renal = tested on: 786-0 renal
OVCAR-8 ovarian = tested on: OVCAR-8 ovarian
SF-268 CNS = tested on: SF-268 CNS
TK-10 renal = tested on: TK-10 renal
HOP-92 NSCLC = tested on: HOP-92 NSCLC
SNB-19 CNS = tested on: SNB-19 CNS
RPMI-8226 leukemia = tested on: RPMI-8226 leukemia
IGROV1 ovarian = tested on: IGROV1 ovarian

| SMILES | TGI (HOP-62 NSCLC) [µM] | TGI (NCI-H522 lung) [µM] | TGI (786-0 renal) [µM] | TGI (OVCAR-8 ovarian) [µM] | TGI (SF-268 CNS) [µM] | TGI (TK-10 renal) [µM] | TGI (HOP-92 NSCLC) [µM] | TGI (SNB-19 CNS) [µM] | TGI (RPMI-8226 leukemia) [µM] | TGI (IGROV1 ovarian) [µM] | GI50 (HOP-62 NSCLC) [µM] | GI50 (NCI-H522 lung) [µM] | GI50 (RPMI-8226 leukemia) [µM] | GI50 (OVCAR-8 ovarian) [µM] | GI50 (SF-268 CNS) [µM] | GI50 (TK-10 renal) [µM] | GI50 (IGROV1 ovarian) [µM] | GI50 (HOP-92 NSCLC) [µM] | GI50 (SNB-19 CNS) [µM] |
| --- | --- | --- | --- | --- | --- | --- | --- | --- | --- | --- | --- | --- | --- | --- | --- | --- | --- | --- | --- |
| C/C=C1/CN2[C@@H](C3=C[C@@H]4[C@@H]5N(C3=O)c3ccccc3[C@@]53CCN5C/C(=C/C)[C@@H]4C[C@H]53)C[C@@]34c5ccccc5N5C(=O)CC=C([C@H]1C[C@H]23)[C@H]54 | 17.5 | 14.6 | 7.8 | 13.1 | 14.1 | 15 | 13.2 | 14.7 |  |  |  |  |  |  |  |  |  |  |  |
| COC(=O)c1ccc(CCC2=CC(=O)C(Br)=CC2=O)cc1 | 31.6 | 10.5 | 35.2 | 32 | 43 | 31.1 | 11.9 | 29.2 | 49.3 | 28.7 |  |  |  |  |  |  |  |  |  |
| CCCN=C1Nc2ccccc2[C@@H]2N(C)c3ccccc3C(C)C[C@]12C (some centres not stated) | 32.1 | 39.8 | 33.9 | 28.9 | 54.6 | 34.2 |  | 44.8 | 41.7 | 43.5 |  |  |  |  |  |  |  |  |  |
| CC(C)=CCC/C(=C\CC/C(=C\CCc1ccoc1)C(=O)O)C(=O)O | > 100 | > 100 | > 100 | > 100 | > 100 | > 100 | > 100 | > 100 | > 100 | > 100 |  |  |  |  |  |  |  |  |  |
| C=C(C)[C@@H]1CC[C@]2(CO)CC[C@]3(C)[C@H](CC[C@@H]4[C@@]5(C)CC[C@H](O)C(C)(C)[C@@H]5CC[C@]43C)[C@@H]12 | 42.1 | 64.9 | 27.1 | 60.1 | > 100 | 38 | 41 |  |  | > 100 |  |  |  |  |  |  |  |  |  |
| CC(C)(C)OC(=O)NC1CCCC1C(O)(C1=CCCC1)C1=CCCC1 (configuration not stated) | > 100 |  | > 100 | > 100 | > 100 |  | > 100 | > 100 | > 100 | > 100 |  |  |  |  |  |  |  |  |  |
| Cc1ccc2ccc(=O)oc2c1 | > 100 | > 100 | > 100 | > 100 | > 100 | > 100 | > 100 |  | > 100 | > 100 |  |  |  |  |  |  |  |  |  |
| Cc1ccc(S(=O)(=O)NC(=O)NC(Cc2ccccc2)C(=O)O)cc1 (configuration not stated) | > 100 | > 100 | > 100 | > 100 | > 100 | > 100 | > 100 | > 100 | > 100 | > 100 |  |  |  |  |  |  |  |  |  |
| Cc1c(C#N)c2nnn(-c3ccc([N+](=O)[O-])cc3)c(=O)n2c1-c1ccccc1 | 19.8 | 13.9 | 26.6 | 25.7 | 32.4 | > 100 | 31.4 | 36.7 | > 100 | 33.6 |  |  |  |  |  |  |  |  |  |
| Cc1ccc(S(=O)(=O)N(CC(O)c2ccccc2)c2ccccc2F)cc1 (configuration not stated) | 33.8 | 32 | 34.7 | 36.9 | 31.1 | 45.8 | 22.9 | 37.5 | 39 | 41.2 |  |  |  |  |  |  |  |  |  |
| CCOC(O)C(F)(F)F (configuration not stated) |  |  |  | > 100 | > 100 | > 100 | > 100 | > 100 |  |  |  |  |  |  |  |  |  |  |  |
| COc1ccc2c(c1)c(=O)c1c(NCCCN(C)CCCNc3ccc4c(=O)n(CCN(C)C)c(=O)n5c6ccc(OC)cc6c(=O)c3c45)ccc3c(=O)n(CCN(C)C)c(=O)n2c31 | 1.04 | 0.544 | 1.48 | 2.65 | 1.88 | 6.6 | 0.941 | 2.17 | 0.176 | 0.584 |  |  |  |  |  |  |  |  |  |
| CC(=O)Nc1ccc(N2C(=O)CS(=O)(=O)C2c2cccc(Oc3ccccc3)c2)cc1 (configuration not stated) | 38.9 | 41.9 | 35.7 | 41.6 | 41.7 | 41.7 | 29.5 | 36.2 |  |  |  |  |  |  |  |  |  |  |  |
| O=C(Nc1ccc(-n2cc(-c3ccncc3)c(-c3ccc(O)c(Cl)c3)n2)cc1)c1cc(Cl)cc(Cl)c1 | > 32.5 | > 32.5 |  | > 32.5 | > 32.5 | > 32.5 | > 32.5 | > 32.5 | 6.18 | > 32.5 | 2.87 | 1.03 | 1.07 | 1.66 | 3.85 | 6.8 | > 32.5 | 1.28 | 2.95 |
| COc1cc(CCNC2=CC(=O)c3cccnc3C2=O)ccc1O | 2.86 | 2.26 | 3.67 | 12 | 7.7 | 30.5 | 19 | 4.04 | 5.2 | 4.3 |  |  |  |  |  |  |  |  |  |
| CN(C)Cc1cc(C(C)(C)C)cc(CNC2CCCCC2)c1O | > 100 | 60.4 | > 100 |  | 47.4 | > 100 | 59.7 | > 100 | 57.9 | > 100 |  |  |  |  |  |  |  |  |  |
| COc1ccc(C[C@H]2NC(=O)/C=C/C[C@@H]([C@H](C)[C@H]3O[C@@H]3c3ccccc3)OC(=O)[C@H](CC(C)C)OC(=O)[C@H](C)CNC2=O)cc1 | > 7.45e-05 | > 0.0001 | > 0.0001 | 5.55e-05 | > 0.0001 | > 0.0001 |  | > 0.0001 | > 0.0001 | > 0.0001 |  |  |  |  |  |  |  |  |  |
| O=c1[nH]c2nccnc2c2c([N+](=O)[O-])cccc12 | > 100 | > 100 | > 100 | > 100 | > 100 | > 100 |  | > 100 | > 100 | > 100 |  |  |  |  |  |  |  |  |  |
| OC12C3C4CC5C(C4[C@@H]1Br)C2[C@@](O)(c1c(F)c(F)c(F)c(F)c1F)C53 (some centres not stated) | > 100 | > 100 | > 100 | > 100 | > 100 | > 100 | 68.7 | > 100 |  | > 100 |  |  |  |  |  |  |  |  |  |
| Cc1cccc(/C=N/NC(=S)N2CCCCCC2)n1 | 1.01 | 0.788 | 0.775 | 0.428 |  | 4.8 | > 89.1 | > 100 | 0.374 | 1.55 |  |  |  |  |  |  |  |  |  |
| O=S(=O)(O)c1ccc2c(N=Nc3ccccc3)c(O)c(S(=O)(=O)O)cc2c1 | > 100 | > 100 | > 100 | > 100 | > 100 | > 100 | > 100 | > 100 |  | > 100 |  |  |  |  |  |  |  |  |  |
